Measured values as given in patent US20070249705A1, “N-(1-(2,3-Dihydro-1H-Inden-5Yl)-2-Oxo-3-Pyrrolidinyl)-Sulfonamide Derivatives for Use as Factor Xa Inhibitors” (priority 2004, published 2007).

Target: human Factor Xa (Homo sapiens, UniProt P00742)
Assay: In vitro fluorogenic assay for inhibition of Factor Xa
Assay type: biochemical
Details: Ki = IC50/1.6
Procedure: In Vitro Assay for Inhibition of Factor Xa
Compounds of the present invention were tested for their Factor Xa inhibitory activity as determined in vitro by their ability to inhibit human Factor Xa in a fluorogenic assay, using Rhodamine 110, bis-CBZ-glycylglycyl-L-arginine amide as the fluorogenic substrate. Compounds were diluted from a 10 mM stock solution in dimethylsulfoxide at appropriate concentrations. Assay was performed at room temperature using buffer consisting of: 50 mM Tris-HCl, 150 mM NaCl, 5 mM CaCl2, pH 7.4 containing human Factor Xa (final concentration of 0.0003 U.ml-1). Compound and enzyme were preincubated for 15 min prior to addition of the substrate (final concentration of 10 μM). The reaction was stopped after 3 hrs with the addition of H-D-Phe-Pro-Arg-Chloromethylketone. An LJL-Analyst fluorimeter was used to monitor fluorescence with 485 nm excitation/535 nm emission. To obtain IC50 values the data were analysed using ActivityBase® and XLfit®.
Calculation of Ki values:
Ki=IC50/(1+[Substrate]/Km)
The Ki value for the above assay can be obtained by dividing the IC50 value by 1.6.

human Factor Xa, sequence (P00742 235-488 limits assumed): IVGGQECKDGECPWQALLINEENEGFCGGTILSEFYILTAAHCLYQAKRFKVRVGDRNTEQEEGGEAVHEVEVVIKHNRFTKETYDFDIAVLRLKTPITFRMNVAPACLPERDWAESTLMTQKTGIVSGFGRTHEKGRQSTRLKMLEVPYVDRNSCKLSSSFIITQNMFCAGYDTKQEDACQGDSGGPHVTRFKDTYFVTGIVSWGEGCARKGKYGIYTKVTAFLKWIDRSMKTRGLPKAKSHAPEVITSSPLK
human Factor Xa, sequence (P00742 41-179 partner limits assumed): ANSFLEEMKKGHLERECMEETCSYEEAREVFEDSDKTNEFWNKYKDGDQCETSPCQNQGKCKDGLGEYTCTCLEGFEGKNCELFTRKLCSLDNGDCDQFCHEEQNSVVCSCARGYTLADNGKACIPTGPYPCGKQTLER

Row | Ki [nM] | Compound
1 | < 50 | CNC1CCc2cc(N3CC[C@H](N(C)S(=O)(=O)c4ccc5cc(Cl)ccc5c4)C3=O)ccc21 (stereo partly drawn) [Example 12, 6-Chloro-N-methyl-N-{(3S)-1-[1-(methylamino)-2,3-dihydro-1H-inden-5-yl]-2-oxo-3-pyrrolidinyl}-2-naphthalenesulfonamide]
2 | < 50 | CN(C)C1CCc2cc(N3CCC(NS(=O)(=O)c4cc5ccc(Cl)cc5s4)C3=O)ccc21 (centres unmarked) [Example 3, 6-Chloro-N-{1-[1-(dimethylamino)-2,3-dihydro-1H-inden-5-yl]-2-oxo-3-pyrrolidinyl}-1-benzothiophene-2-sulfonamide]
